Where two headings read alike, the source gives them in different places. Blank lines part the entries; values can stand above or below the molecule they belong to. Peptide text beside a SMILES is read from it. * marks the point of attachment. 5FAM = O=C1OC2(c3ccc(O)cc3Oc3cc(O)ccc32)c2ccc(C(=O)*)cc21
Columns and labels:
hCMEC/D3 cell monolayer = test: Transwell in vitro BBB model; assay type: cell-based, human
Method: For the construction of the in vitro BBB model, hCMEC/D3 cells were seeded on rat tail collagen-coated polycarbonate membranes (Transwell, No. 3401 Costar; Corning, Wiesbaden, Germany; 0.4 μm pore size; 1.13 cm^2 growth area) with a density of 100,000 cells cm^−2. Every three days the cell medium was change. In general after 7 days growth, the cells reached confluence. The transendothelial electrical resistance (TEER) and cell layer capacitance (CCL), which reflects the membrane surface area of the hCMEC/D3 cell monolayer, were measured using CellZscope system (NanoAnalytics, Münster, Germany). Cells with CCL values in the range of 0.5–5.0 μF cm^−2 indicate cell confluence and validate TEER values were selected for the transfer experiments. NLCs at different concentrations were introduced in to the apical side of the BBB model. The TEER values were measured during the incubation. After 24 h of incubation, the media from basal and apical sides were sampled and analysed for fluorescent measurement. CD31 and paracellular adherens (β-catenin) junctions were assessed by immunofluorescence labeling directly on the cell monolayer attached to the transwell membrane. Briefly, cells were fixed by 4% v/v paraformaldehyde for 10 min, rinsed and then permeabilised with 0.5% (v/v) Triton X-100 for 10 min. After rinsing samples were blocked by 5% w/v BSA for 1 h, followed by incubation with primary antibodies (rabbit polyclonal to CD31, rabbit polyclonal to anti-β-catenin) in 1% w/v BSA overnight at 4 °C. […] After rinsing, the red fluorescence from tight junction proteins was observed by a Leica AF6000LX microscope equipped with a 63 × objective using ×1.6 magnifications. […]
formation of multiple cell-layers was sometime observed from day 7 onward. […] TEER values and its corresponding capacitance were recorded after the introduction of peptide for 24 h. (d) & (e) Staining and quantification of endothelial cells (CD31) and adheren β-catenin markers confirming the presence of a functional tight junction before and after NLC ( 5 µM) challenge. […]

[1] = Blood count after intravenous injection; assay type: in vivo, ICR mice
From the text: Supplementary Table 2. Blood count following intravenous injection of FAM-CGY NLCs in free form and complexed with siRNA
Samples WBC RBC HGB HCT MCV MCH MCHC PLT
WBC: white blood cell; RBC: red blood cell count; HGB: haemoglobin; HCT: haematocrit; MCV: mean corpuscular volume; MCH: mean corpuscular haemoglobin; MCHC: mean corpuscular
significance (*p < 0.05). The results are mean ± s.d. (n = 3 animals per group). The experiment was repeated twice with identical results. The siRNA represent BACE-1-specific siRNA. The
final concentration of the peptide conjugate was 10 µM and that of siRNA was 48 nM, based on blood volume calculation equivalent to 6% of the body weight. LPS = lipopolysaccharide.

BACE1 = test: In vivo BACE1 silencing, Western blot; set-up: species or system ICR mice; settings: for BACE1 expression level: 72 nM siRNA
Method: For in vivo BACE1 silencing, 20 ICR mice were randomly divided into five groups (4 mice in each group) and administrated intravenously with either 72 nM siControl/FAM-CGY or BACE1 siRNA (final concentration, 72 nM) or 72 nM siControl/FAM-CGY scramble peptide1 or 48 nM BACE1 siRNA/FAM-CGY or 72 nM BACE1 siRNA/FAM-CGY, respectively. The final concentration of peptide was 10 μM. […] The frozen brain tissues (80–90 mg) were homogenized in RIPA lysis buffer (Beyotime, China) and centrifuged at 18,000 × g, 4 °C for 15 min. Protein concentration of the supernatant was determined using the BCA Protein Assay Kit. Equal amounts of protein from each sample were loaded on SDS-PAGE gels (4–15%) for the determination with level of the target protein determined by Western blotting using the anti-BACE1 antibody (1:1000 dilution) and detected with HRP-Goat-anti-rabbit) IgG (H + L) secondary antibody (1:3000).

IL-6 = test: ELISA of IL-6 in hippocampus; assay type: in vivo, ICR mice; settings: 24 h after i.v. (LPS 24 h); Ave.
Method: After 4, 24 and 72 h post injection, mice were sacrificed and perfused with 10 mL 0.9% (w/v) saline at a rate of 2 mL min^−1.
Hippocampus was dissected out, rinsed in ice-cold PBS thoroughly, weighted and immediately frozen in liquid nitrogen. Tissues were cut into small pieces and homogenized in 1 mL ice-cold PBS with a glass homogeniser and sonicated with an ultrasonic cell disrupter to break the cell membranes. Homogenates were centrifuges for 5 min at 5,000 × g and supernatants were assayed immediately for quantitative determination of TNF-α, IL-6, IL-1β, Iba-1 and GFAP by corresponding ELISA kits, respectively in accordance with manufacturer’s instructions.

Iba-1 = test: ELISA of Iba-1 in hippocampus; assay type: in vivo, ICR mice; settings: 24 h after i.v. (LPS 24 h); Ave.
IL-1β = test: ELISA of IL-1β in hippocampus; assay type: in vivo, ICR mice; settings: 24 h after i.v. (LPS 24 h); Ave.
GFAP = test: ELISA of GFAP in hippocampus; assay type: in vivo, ICR mice; settings: 24 h after i.v. (LPS 24 h); Ave.
hCMEC/D3 cells = test: Cell uptake by flow cytometry; assay type: cell-based, human; settings: 5 µM, 24 h, 37 °C, flow cytometry (Supplementary Fig. 13)
Method: Peptide internalisation was measured by flow cytometry (FACS ArrayTM Cell Analysis, Becton, Dickinson and Company, NJ, USA). Cells (1 × 10^5 cm^−2) were seeded on 24-well plates and grown 1 day at 37 °C and 5% CO2 in order to reach 60–70% confluence. The cells were washed 3 times with pre-heated PBS. The uptake studies were initiated by adding 500 µL of 5 µM fluorescence-labelled peptides (diluted in cell medium containing with different serum concentration). Serum concentration in incubation varied from 5 to 20% (v/v). […] A total of 10,000 cells were analysed by flow cytometry.

[2] = 24 h after i.v., mean ± s.d., n = 3

Molecule: CC[C@H](C)[C@H](NC(=O)[C@H](CC(N)=O)NC(=O)[C@H](Cc1c[nH]cn1)NC(=O)[C@@H](NC(=O)[C@@H]1CCCN1C(=O)[C@H](CCCNC(=N)N)NC(=O)[C@H](Cc1ccc(O)cc1)NC(=O)CNC(=O)[C@H](CS)NC(=O)c1ccc2c(c1)C(=O)OC21c2ccc(O)cc2Oc2cc(O)ccc21)C(C)C)C(=O)NCC(=O)N[C@@H](Cc1c[nH]cn1)C(=O)N[C@@H](Cc1c[nH]c2ccccc12)C(=O)N[C@@H](CCCNC(=N)N)C(=O)N[C@@H](C)C(=O)N1CCC[C@H]1C(=O)NCC(=O)O [FAM-CGY scrambled 1] (5FAM-CGYRPVHNIGHWRAPG-OH)
- transport across the hCMEC/D3 monolayer (hCMEC/D3 cell monolayer; apical to basal, 24 h, fluorescence): neither the fluorophor 5-FAM nor the scrambled peptide showed notable transport

Molecule: siBACE1: sense 5′-GCUUUGUGGAGAUGGUGGATT-3′, antisense 5′-UCCACCAUCUCCACAAAGCTT-3′; siRNA of Supplementary Table 2 (chemistry not given here)
- WBC ([1]; mouse, in vivo, iv): 4.54±0.30 (×109)L-1
- BACE1 expression level (BACE1; 48 h after i.v., siControl = 100.00, Ave.): 101.87
- BACE1 expression level (BACE1; 48 h after i.v., siControl = 100.00, experiment 2): 94.53
- BACE1 expression level (BACE1; 48 h after i.v., siControl = 100.00, experiment 3): 102.52
- BACE1 expression level (BACE1; peptide 10 μM where present, single i.v., 48 h, FAM-CGY+72 nM siControl = 100.00, experiment 1): 108.56
- pharmacological activity in hippocampus (BACE1; i.v. BACE1 siRNA in free form or with FAM-SP1): no pharmacological activity

Molecule: lipopolysaccharide from Escherichia coli O55:B5 [LPS]
- WBC ([1]; 24 h after i.v. (LPS 200 μg kg−1), mean ± s.d., n = 3): 1.49±0.26 (×109)L-1
- HCT [1, 2]: 71.90±6.10%
- HGB [1, 2]: 152.25±14.25 gL-1
- MCH [1, 2]: 17.45 ± 0.45 pg
- MCHC [1, 2]: 211.75±2.63 gL-1
- MCV [1, 2]: 82.78 ± 1.23 fL
- PLT [1, 2]: 282.45±28.83 (×109)L-1
- RBC [1, 2]: 8.72±0.61 (×1012)L-1
- IL-6 in hippocampus (Figure 6f) (IL-6): 9.69
- Iba-1 in hippocampus (Figure 6h) (Iba-1): 1.68
- IL-1β in hippocampus (Figure 6g) (IL-1β): 36.79
- GFAP in hippocampus (Figure 6i) (GFAP): 289.26

- cellular uptake in contrast to FAM-CGY (hCMEC/D3 cells): relatively low
Molecule: CC[C@H](C)[C@H](NC(=O)[C@H](CC(N)=O)NC(=O)[C@H](Cc1c[nH]cn1)NC(=O)[C@@H](NC(=O)[C@@H]1CCCN1C(=O)[C@H](CCCNC(=N)N)NC(=O)[C@H](Cc1ccc(O)cc1)NC(=O)CNC(=O)c1ccc2c(c1)C(=O)OC21c2ccc(O)cc2Oc2cc(O)ccc21)C(C)C)C(=O)N[C@@H](CCCNC(=N)N)C(=O)NCC(=O)N[C@@H](Cc1c[nH]cn1)C(=O)N[C@@H](Cc1c[nH]c2ccccc12)C(=O)N[C@@H](C)C(=O)N1CCC[C@H]1C(=O)NCC(=O)O [FAM-GYR] (5FAM-GYRPVHNIRGHWAPG-OH)

Molecule: O=C(O)c1ccc2c(c1)C(=O)OC21c2ccc(O)cc2Oc2cc(O)ccc21 [5-FAM, 5-carboxy-fluorescein, reference compound]
- transport across the hCMEC/D3 monolayer (hCMEC/D3 cell monolayer): neither the fluorophor 5-FAM nor the scrambled peptide showed notable transport
